Test results from patent publication US20260315562A1, “NOVEL FEED-ADDITIVE COMPOSITION” (KYNTOX BIOTECH INDIA PRIVATE LIMITED, priority 2023, published 2026).

Experiments:
[1] = test system: white spot syndrome virus (WSSV); details: dietary supplementation; Qian et al. 2021, Gong et al. 2022; cited from earlier work
[2] = Safety of test sample in non-infected freshwater crabs (Placebo group); further: key: 0: Represents live animal; 1: Represents Animal Mortality; type: in vivo, P. hydrodromous; details: GML 5 mg/animal
Procedure: Placebo: The term is used herein in reference to disease negative wherein the highest dose of test molecule has been injected, and evidences for safety of test molecules.
(§1) Freshwater crabs P. hydrodromous were collected from Padavedu (12.6310070 79.052885°) Vellore, India.
(§2) The animals with a body weight of 20-25 g were transported to the laboratory and maintained at room temperature (25° C.). The crabs were fed twice a day with boiled egg whites. The crabs were kept in the described condition for one week before the experiment.
(§3) The anti-viral efficacy of GMVL and saponin-rich extract against WSSV was assessed in the freshwater crab, previously acclimated to laboratory conditions. The crabs were divided into different experimental groups containing 4 crabs per group and the experiment was performed in duplicates. The viral inoculum mixture was injected into the respective group after 3 h of pre-incubation. All the crabs were injected intramuscularly at the second abdominal segment. Briefly, healthy crabs received the injection as given above. The crabs were fed twice a day and observed regularly for gross signs of disease. The experiment was carried out up to several days depending on the survival after challenging with WSSV with/without above mentioned antagonist and mortality was recorded to plot a cumulative mortality graph.

WSSV = test: In vivo anti-viral bioassay: survival of freshwater crabs after WSSV challenge; on Animal survival/mortality: key: 0: Represents live animal; 1: Represents Animal Mortality; design: species or system P. hydrodromous
Procedure: Positive Control: The term is used herein in reference to disease positive control where only WSSV virus is injected without any antagonist. This positive for the disease expression.
The experimental groups have been divided in seven groups, Group-I-VII as described below:
as §1, §2
As described in earlier reports (Natarajan et al., 2017), haemolymph was drawn from WSSV infected shrimp using a 26-gauge syringe through heart puncture. The haemolymph was centrifuged at 3000 rpm for 20 minutes at 4° C. The supernatant was collected and it was centrifuged for 30 minutes at 4° C. and then it was filtered using 0.45p m and stored at −20° C. for further studies. The haemolymph were analyzed via PCR to confirm the presence of WSSV. To amplify the structural VP28 gene, a conventional PCR reaction was set up, which includes […], 5 pmol WSSV-VP28 primer (Table 1), 3 μl PCR-grade water, and 1 μl template DNA (Sundaram et al., 2016; Yoganandhan et al., 2003). The viral titer quantified through real time PCR, was 1.6×10^6 copies μL−1 which served as the stock for this study.
as §3

[3] = preincubated with WSSV, co-injected (i.m)

CCCCCCCCCCCC(=O)OCC(O)CO (stereo not drawn) [GML, Glycerol monolaurate]
WSSV copy number [1]: reduced the WSSV copy number | mortality of WSSV-infected crayfish [1]: reduce the mortality | Animal survival/mortality (Placebo) ([2]; 0 h): 0 | Animal survival/mortality (Placebo) ([2]; 6 h): 0 | Animal survival/mortality (Placebo) ([2]; 12 h): 0 | Animal survival/mortality (Placebo) ([2]; 24 h): 0 | Animal survival/mortality (Placebo) ([2]; 48 h): 0 | Animal survival/mortality (Placebo) ([2]; 72 h): 0 | Animal survival/mortality (Placebo) ([2]; 96 h): 0 | Animal survival/mortality (Placebo) ([2]; 120 h): 0 | Animal survival/mortality (Placebo) ([2]; 144 h): 0 | animal survival time (WSSV; 3 mg/animal, preincubated with WSSV, co-injected (i.m)): > 140 h | time within which all animals in the test groups died post challenging (WSSV; 1 and 3 mg/animal, preincubated with WSSV, co-injected (i.m)): ≤ 150 h | Animal survival/mortality (WSSV; GML 1 mg/animal, 0 h): 0 | Animal survival/mortality (WSSV; GML 1 mg/animal, 6 h): 0 | Animal survival/mortality (WSSV; GML 1 mg/animal, 12 h): 0 | Animal survival/mortality (WSSV; GML 1 mg/animal, 24 h): 1 | Animal survival/mortality (WSSV; GML 1 mg/animal, 48 h): 0 | Animal survival/mortality (WSSV; GML 1 mg/animal, 72 h): 1 | Animal survival/mortality (WSSV; GML 1 mg/animal, 96 h): 1 | Animal survival/mortality (WSSV; GML 1 mg/animal, 120 h): 1 | Animal survival/mortality (WSSV; GML 3 mg/animal, 0 h): 0 | Animal survival/mortality (WSSV; GML 3 mg/animal, 6 h): 0 | Animal survival/mortality (WSSV; GML 3 mg/animal, 12 h): 0 | Animal survival/mortality (WSSV; GML 3 mg/animal, 24 h): 1 | Animal survival/mortality (WSSV; GML 3 mg/animal, 48 h): 0 | Animal survival/mortality (WSSV; GML 3 mg/animal, 72 h): 1 | Animal survival/mortality (WSSV; GML 3 mg/animal, 96 h): 1 | Animal survival/mortality (WSSV; GML 3 mg/animal, 120 h): 1 | Animal survival/mortality (WSSV; GML 3 mg/animal, 144 h): 1 | mortality (in words) (WSSV; alone or in combination): the mortality is significant | inhibition of the virus (WSSV; [3]): partial inhibition of the virus | protection of the animal from lethality (WSSV; [3]): could not protect the animal from lethality
